The target of one experiment is T1, MEK1 activated ERK1 (Homo sapiens, UniProt P27361).
T1 construct: purchased Millipore (Billerica, Mass.) 14-439-K
Nature of the experiment: Omnia continuous-read kinase assay for potency against MEK1 activated ERK1. It counts as biochemical. Conditions: MEK1 activated ERK1, ATP at KM; read-out: ERK1 Omnia WT ATP KM IC50. In a few lines: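 Apparent IC50 came from initial reaction slopes (RFU vs time) plotted against log inhibitor with a variable-slope fit. Reactions were started with ERK1 (4 nM final) added to 50 μM ATP, roughly at its appKM, and 10 μM Sox-conjugated ST17 peptide in 20 mM Tris pH 7.5, 5 mM MgCl2. Fluorescence was monitored every 71 seconds.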

Experiment [1] has as its system ERK1/2 phosphorylation of p90RSK in HT29 cells. Nature of the experiment: pRSK MSD Assay in HT29 cells. It is filed as cell-based. Particulars: Homo sapiens, HT-29, read-out: ERK1/ERK2 PRSK MSD HT29 EC50. In a few lines:
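Phospho-RSK level, read by electrochemiluminescence on RSK-antibody-coated MSD plates with a phospho-RSK/Sulfo-tag detection pair, reports cellular ERK1/2 activity. HT29 cells, kept overnight in 0.1% FBS medium, were exposed to compound for 120 min at 37° C before lysis.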

Experiment [2] deals with HT-29 cells (colorectal adenocarcinoma). Briefly: Inhibition of cancer cell proliferation, HT-29 (CellTiterGlo, 72 hours). It is filed as cell-based. Conditions: Homo sapiens. The method, then:
Measurement of Inhibition of Cancer Cell Proliferation (HT-29/Colorectal Adenocarcinoma)
The following protocol used an HT-29 cell line, which cell line is a model for colorectal adenocarcinoma. HT-29 cells were split and 3000 cells in 100 μl of growth medium were added per well of a flat-bottom 96-well plate. A two-fold test compound solution in serum-free RPM1640 was made, starting at 5,000 nM. Then, 3-fold serial dilutions were made across the plate from well 1 to well 11. Well 12, the last well in a row on the plate, was left as untreated control. 100 μl compound solutions were then transferred to the wells, so the total volume of media was 200 μl per well. Plates were returned to a 37° C. incubator, and the cells were cultured for 72 hours. To measure cell proliferation after 72 hours, media was discarded from the plates, 50 μl/well of fresh medium was added, and 50 μl CellTiterGlo solution was added (Promega Cat#G7573). The plate was covered with a dark lid and incubated for 10 min. A white sealing tape was applied to the bottom of the plate, and the plate was read in a luminescence plate reader. […] A 2-fold serial dilution was used to generate 8 cell densities from 50,000-390 cells per well in 50 μl media. 50 μl CellTiterGlo was added per well, and the plate was read in a luminescence plate reader after 10 min. The reading was plotted vs. cell number to generate a standard curve and the equation of the curve fit. The compound-treated sample luminescence readings were converted to cell numbers using the curve-fit equation. The percent of inhibition, using untreated control as 100% growth, was then calculated. GI50 was then calculated by GraphPad Prism.

This passage reports IC50, EC50 and GI50 results from patent US9561228B2 (Celgene Avilomics Research, Inc., priority 2013, dated 2017).

pEC50, pIC50: −log10 of the molar value.

T1 sequence (P27361 whole entry): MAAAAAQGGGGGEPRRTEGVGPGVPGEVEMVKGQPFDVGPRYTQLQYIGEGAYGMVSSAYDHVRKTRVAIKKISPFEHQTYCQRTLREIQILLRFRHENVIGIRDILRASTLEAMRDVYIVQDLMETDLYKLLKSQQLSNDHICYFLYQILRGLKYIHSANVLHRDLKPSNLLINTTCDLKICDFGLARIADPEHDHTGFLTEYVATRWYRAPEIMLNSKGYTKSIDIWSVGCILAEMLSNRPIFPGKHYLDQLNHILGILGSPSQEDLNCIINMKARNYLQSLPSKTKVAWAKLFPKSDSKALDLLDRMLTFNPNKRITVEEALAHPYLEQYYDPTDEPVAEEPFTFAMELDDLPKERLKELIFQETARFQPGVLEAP

With `C=CC(=O)Nc1ccccc1Nc1nc(Nc2ccc(NC(=O)CCCC(=O)NCCCOCCOCCOCCCNC(=O)CCCC[C@H]3SC[C@H]4NC(=O)N[C@H]43)cc2OC)ncc1Cl` [Compound I-301, N^1-(4-((4-((2-acrylamidophenyl)amino)-5-chloropyrimidin-2-yl)amino)-3-methoxyphenyl)-N^5-(15-oxo-19-((3aR,4R,6aS)-2-oxohexahydro-1H-thieno[3,4-d]imidazol-4-yl)-4,7,10-trioxa-14-azanonadecyl)glutaramide], the pIC50 on MEK1 activated ERK1 was 6.00 to 6.30. Also, in experiment [1], the pEC50 was less than 6.00. Further, the GI50 in experiment [2] was greater than 1000 nM.

Turning to `C=CC(=O)Nc1cc(OC)ccc1Nc1nc(Nc2ccc(N3CCCN(C(=O)OC(C)(C)C)CC3)cc2C#N)ncc1Cl` [Compound I-156, tert-butyl 4-(4-((4-((2-acrylamido-4-methoxyphenyl)amino)-5-chloropyrimidin-2-yl)amino)-3-cyanophenyl)-1,4-diazepane-1-carboxylate], the negative-log IC50 (pIC50) on MEK1 activated ERK1 was 6.30 to 7.00. The pEC50 in experiment [1] was 6.00 to 6.30. This compound also had a GI50 in experiment [2] greater than 1000 nM.

As to `C=CC(=O)Nc1ccccc1Nc1nc(NC2CCN(C(C)=O)CC2)ncc1C(F)(F)F` [Compound I-12, N-(2-((2-((1-acetylpiperidin-4-yl)amino)-5-(trifluoromethyl)pyrimidin-4-yl)amino)phenyl)acrylamide], the pIC50 at MEK1 activated ERK1 was 6.30 to 7.00. Moreover, the pEC50 in experiment [1] is 6.30 to 7.00. The same compound showed a 50% growth inhibitory concentration (GI50) in experiment [2] of 101 to 500 nM.

With `C=CC(=O)N(C)c1ccccc1Nc1nc(N[C@@H]2CCC[C@H](C(N)=O)C2)ncc1Cl` (racemic) [Compound I-105, Rac-cis-3-((5-chloro-4-((2-(N-methylacrylamido)phenyl)amino)pyrimidin-2-yl)amino)cyclohexanecarboxamide], the pIC50 on MEK1 activated ERK1 was 6.00 to 6.30. Besides, in experiment [1], the pEC50 is less than 6.00. In experiment [2], this compound returned a GI50 of 501 to 999 nM.

Regarding `C=CC(=O)Nc1ccccc1Oc1nc(Nc2ccc(N3CCC[C@@H]3CO)cc2OC)ncc1C(N)=O` [Compound I-263, (R)-4-(2-acrylamidophenoxy)-2-((4-(2-(hydroxymethyl)pyrrolidin-1-yl)-2-methoxyphenyl)amino)pyrimidine-5-carboxamide], the pIC50 on MEK1 activated ERK1 was 6.30 to 7.00. The pEC50 in experiment [1] is less than 6.00. Moreover, in experiment [2], the 50% growth inhibitory concentration (GI50) is greater than 1000 nM.

Regarding `C=CC(=O)Nc1ccccc1Nc1nc(Nc2ccc(N3CCC[C@@H]3C(N)=O)cc2C#N)ncc1Cl` [Compound I-179, (R)-1-(4-((4-((2-acrylamidophenyl)amino)-5-chloropyrimidin-2-yl)amino)-3-cyanophenyl)pyrrolidine-2-carboxamide], the negative-log IC50 (pIC50) at MEK1 activated ERK1 was 6.30 to 7.00. Besides, the pEC50 in experiment [1] was 6.00 to 6.30. This compound also came in with a concentration for 50% growth inhibition (GI50) in experiment [2] greater than 1000 nM.

In the case of `C=CC(=O)Nc1ccccc1Nc1nc(Nc2ccc(N(CCCN)C(C)=O)cc2OC)ncc1Cl` [Compound I-167, N-(2-((2-((4-(N-(3-aminopropyl)acetamido)-2-methoxyphenyl)amino)-5-chloropyrimidin-4-yl)amino)phenyl)acrylamide], on MEK1 activated ERK1, the negative-log IC50 (pIC50) was 6.30 to 7.00. For the same compound, the pEC50 in experiment [1] is less than 6.00. In addition, the GI50 in experiment [2] was greater than 1000 nM.

For `C=CC(=O)Nc1ccccc1Oc1nc(NC(C)(C)C)ncc1C(N)=O` [Compound I-267, 4-(2-acrylamidophenoxy)-2-(tert-butylamino)pyrimidine-5-carboxamide], the pIC50 on MEK1 activated ERK1 is 6.30 to 7.00. The pEC50 in experiment [1] was less than 6.00. This compound also gave a 50% growth inhibitory concentration (GI50) in experiment [2] greater than 1000 nM.

Take `C=CC(=O)Nc1ccccc1Nc1nc(NC2CCC(F)(F)CC2)ncc1Cl` [Compound I-127, N-(2-((5-chloro-2-((4,4-difluorocyclohexyl)amino)pyrimidin-4-yl)amino)phenyl)acrylamide]: the pIC50 on MEK1 activated ERK1 is 6.30 to 7.00. Further, in experiment [1], the pEC50 was 6.30 to 7.00. This compound also yielded a GI50 in experiment [2] of 101 to 500 nM.

Consider `C=CC(=O)Nc1ccccc1Nc1nc(Nc2ccc(N(CCN)C(C)=O)cc2OC)ncc1Cl` [Compound I-168, N-(2-((2-((4-(N-(2-aminoethyl)acetamido)-2-methoxyphenyl)amino)-5-chloropyrimidin-4-yl)amino)phenyl)acrylamide], for which the pIC50 at MEK1 activated ERK1 is 6.30 to 7.00. The pEC50 in experiment [1] is less than 6.00. The compound also yielded a 50% growth inhibitory concentration (GI50) in experiment [2] greater than 1000 nM.

For `C=CC(=O)Nc1ccccc1Nc1nc(Nc2ccc(NC(=O)COC(C)=O)cc2OC)ncc1Cl` [Compound I-183, 2-((4-((4-((2-acrylamidophenyl)amino)-5-chloropyrimidin-2-yl)amino)-3-methoxyphenyl)amino)-2-oxoethyl acetate], the pIC50 on MEK1 activated ERK1 is 6.30 to 7.00. In experiment [1], the pEC50 was 6.00 to 6.30. The same compound came in with a GI50 in experiment [2] greater than 1000 nM.

For `C=CC(=O)Nc1ccccc1Nc1nc(N[C@H]2CCCNC2)ncc1Cl` [Compound I-126, (S)—N-(2-((5-chloro-2-(piperidin-3-ylamino)pyrimidin-4-yl)amino)phenyl)acrylamide], the pIC50 on MEK1 activated ERK1 is 6.30 to 7.00. Also, the pEC50 in experiment [1] was 6.00 to 6.30. Moreover, the GI50 in experiment [2] fell in the range of 501 to 999 nM.

For `C=CC(=O)Nc1ccccc1Nc1nc(Nc2cc(C(N)=O)ccc2C)ncc1C` [Compound I-224, 3-(4-(2-acrylamidophenylamino)-5-methylpyrimidin-2-ylamino)-4-methyl benzamide], at MEK1 activated ERK1, the pIC50 is 6.30 to 7.00. Also, in experiment [1], the pEC50 is 6.30 to 7.00. In addition, in experiment [2], the GI50 was in the range of 101 to 500 nM.

Take `C=CC(=O)Nc1ccccc1Nc1nc(Nc2cc(C(N)=O)c(OCCCNC(=O)CCCC(=O)NCCCOCCOCCOCCCNC(=O)CCCC[C@@H]3SC[C@@H]4NC(=O)N[C@@H]43)cc2C)ncc1Cl` [Compound I-299, N^1-(3-(4-((4-((2-acrylamidophenyl)amino)-5-chloropyrimidin-2-yl)amino)-2-carbamoyl-5-methylphenoxy)propyl)-N^5-(15-oxo-19-((3aS,4S,6aR)-2-oxohexahydro-1H-thieno[3,4-d]imidazol-4-yl)-4,7,10-trioxa-14-azanonadecyl)glutaramide]: on MEK1 activated ERK1, the negative logarithm of the IC50 (pIC50) was 6.30 to 7.00. In addition, in experiment [1], the pEC50 is less than 6.00. Also, the concentration for 50% growth inhibition (GI50) in experiment [2] was greater than 1000 nM.

Take `C=CC(=O)Nc1ccccc1Nc1nc(NC2CCN(S(C)(=O)=O)CC2)ncc1Cl` [Compound I-117, N-(2-((5-chloro-2-((1-(methylsulfonyl)piperidin-4-yl)amino)pyrimidin-4-yl)amino)phenyl)acrylamide]: the pIC50 on MEK1 activated ERK1 was 6.30 to 7.00. The pEC50 in experiment [1] was 6.30 to 7.00. In experiment [2], this compound yielded a concentration for 50% growth inhibition (GI50) of 101 to 500 nM.

With `C=CC(=O)Nc1ccccc1Nc1nc(NC2CCN(C=O)CC2)ncc1C(F)(F)F` [Compound I-11, N-(2-((2-((1-formylpiperidin-4-yl)amino)-5-(trifluoromethyl)pyrimidin-4-yl)amino)phenyl)acrylamide], the pIC50 at MEK1 activated ERK1 is 6.30 to 7.00. In experiment [1], the pEC50 was 6.30 to 7.00. For the same compound, the GI50 in experiment [2] fell in the range of 101 to 500 nM.

As for `C=CC(=O)Nc1cc(OC)ccc1Nc1nc(Nc2ccc3c(c2)CC(=O)N3CC)ncc1Cl` [Compound I-166, N-(2-((5-chloro-2-((1-ethyl-2-oxoindolin-5-yl)amino)pyrimidin-4-yl)amino)-5-methoxyphenyl)acrylamide], the pIC50 on MEK1 activated ERK1 was 6.30 to 7.00. The pEC50 in experiment [1] was 6.30 to 7.00. This compound displayed a 50% growth inhibitory concentration (GI50) in experiment [2] of 101 to 500 nM.

Regarding `C=CC(=O)Nc1cc(F)ccc1Nc1nc(N[C@@H]2CCC[C@H](C(N)=O)C2)ncc1C(F)(F)F` (racemic) [Compound I-5, Rac-cis-3-((4-((2-acrylamido-4-fluorophenyl)amino)-5-(trifluoromethyl)pyrimidin-2-yl)amino)cyclohexanecarboxamide], the pIC50 on MEK1 activated ERK1 is greater than 7.00. The pEC50 in experiment [1] is 6.30 to 7.00. In experiment [2], the GI50 was in the range of 101 to 500 nM.

For `C=CC(=O)Nc1cc(F)ccc1Nc1nc(N[C@@H]2CCC[C@H](C(N)=O)C2)ncc1Cl` (racemic) [Compound I-112, Rac-cis-3-((4-((2-acrylamido-4-fluorophenyl)amino)-5-chloropyrimidin-2-yl)amino)cyclohexanecarboxamide], the pIC50 on MEK1 activated ERK1 is greater than 7.00. In addition, in experiment [1], the pEC50 was greater than 7.00. The compound further came in with a 50% growth inhibitory concentration (GI50) in experiment [2] of 101 to 500 nM.

Take `C=CC(=O)Nc1ccccc1Nc1nc(NC2CCN(C(C)=O)CC2)ncc1Cl` [Compound I-116, N-(2-((2-((1-acetylpiperidin-4-yl)amino)-5-chloropyrimidin-4-yl)amino)phenyl)acrylamide]: the pIC50 on MEK1 activated ERK1 was 6.30 to 7.00. Besides, the pEC50 in experiment [1] was 6.30 to 7.00. This compound gave a GI50 in experiment [2] of 101 to 500 nM.

Turning to `C=CC(=O)Nc1ccccc1Nc1nc(Nc2ccc(N(CC)C(C)=O)cc2OC)ncc1Cl` [Compound I-155, N-(2-((5-chloro-2-((4-(N-ethylacetamido)-2-methoxyphenyl)amino)pyrimidin-4-yl)amino)phenyl)acrylamide], the pIC50 at MEK1 activated ERK1 was 6.30 to 7.00. In addition, the pEC50 in experiment [1] is less than 6.00. This compound had a GI50 in experiment [2] greater than 1000 nM.
